Reference: BigSolDB 2.1

Cc1cc(O)c2c(c1)C(=O)c1cc(O)cc(O)c1C2=O
solubility (mole fraction)
Settings	273.65 K	278.35 K	289.35 K	298.15 K	307.5 K	313.25 K	318.05 K	323.05 K
in ethanol	0.000485	0.000626	0.000777	0.000936	0.00116	0.00148	0.00168	0.00216
in n-octanol	0.00221	0.00239	0.00266	0.00272	0.00299	0.00347	0.00404	0.00463
